In patent publication US20220380477A1 (priority 2019, published 2022):

Tested on: SNU-C5/WT
Settings: mouse, in vivo

O=c1[nH]cc(F)c(=O)[nH]1 [5FU, 5-fluorouracil]
cell proliferation of tumor cells (Ki67 fluorescence staining): not able to decrease the proliferative ability of tumor cells | tumor formation (tumor volume): does not effectively inhibit tumor formation
